Measured values as given in patent US20250017938A1, “COMBINATION THERAPIES OF FASN INHIBITORS WITH THYROID HORMONE RECEPTOR AGONISTS” (Sagimet Biosciences Inc., priority 2023, published 2025).

Assays:
[1] = target: FASN enzyme isolated from SKBr3 cells (Homo sapiens (Human), UniProt P49327); experiment: FASN biochemical activity (fluorescence measurement of CoA release, CPM dye)
[2] = tested on: primary isolated human stellate cells (HSC); experiment: Primary human hepatic stellate cells stimulated with TGF-β1, total collagen (in vitro fibrosis study); format: cell-based; details: primary human hepatic stellate cells, 10 ng/ml TGF-β, 4 days
Method: Primary isolated human stellate cells (HSC) were investigated in the study. The cells were maintained under standard culture conditions and in established culture medium.
Study Model: Viability screening and in vitro fibrosis study, 24 well plate format, 4 day stimulation with recombinant human TGF-β1. In this study, 2.5 and 10 ng/ml TGF-β1 were used.
(§1) Primary HSCs were seeded on t=day-1 and cultured in 24 well plates for 24 hours. […] Cells were incubated for an additional 96 hours (t=day 4). Conditioned medium samples were collected for expression analysis of secreted proteins. All wells were used for an alamarBlue assay to assess cell viability/metabolic activity. A separate plate was used at t=day 0 as reference for the alamarBlue assay. Next, the cell-matrix fraction was collected for measurement of total collagen and cell protein levels.
Both test compounds were dissolved in DMSO. Working concentrations were prepared from a stock concentration that is 1000-fold that of the highest working concentration. All controls were incubated with the same DMSO concentration as that present in the highest working concentration.
Total Collagen assay was performed according to the manufacturer's protocol.
Total Protein assay, for use with the Total Collagen assay, was performed according to the manufacturer's protocol. Protein levels were used to correct for differences in cell contents between samples.
Significance of differences between the groups was calculated either parametrically or non-parametrically, using the computer program SPSS. For nonparametric calculations, a Kruskal-Wallis test for several independent samples was used, followed by a Mann-Whitney U-test for independent samples. For parametric calculations, a One-way ANOVA for multiple comparisons was used, followed by Dunnett or Bonferroni's correction.

[3] = tested on: primary isolated human stellate cells (HSC); experiment: Primary human hepatic stellate cells stimulated with TGF-β1, PAI-1 secretion; format: cell-based; details: primary human HSCs, TGF-b1-stimulated
Method: as §1

NASH/MASH [4] = details: NASH/MASH trials; cited from earlier work
[5] = tested on: Male Ldlr -/-. Leiden mice fed with fast food diet (FFD); experiment: LDL receptor knockout (Ldlr-/-.Leiden) NASH mice on fast food diet, 10 weeks treatment; format: in vivo, mouse; details: for plasma ALT/AST / plasma total cholesterols / plasma triglycerides: TVB-3664 5 mg/kg, resmetirom 3 mg/kg PO QD alone or in combination, 4 weeks, sustained to 10 weeks; for LDL-C / VLDL-C: lipoprotein analysis
Experimental: This study was designed to evaluate FASN inhibitor alone and in combination with resmetirom on plasma biomarkers and liver histology in LDL receptor knockout (Ldlr−/−. Leiden) NASH mice. FASN inhibitor and resmetirom were also evaluated in vitro in hepatic stellate cells (HSCs) for direct anti-fibrotic effects.
Male Ldlr −/−. Leiden mice were fed with fast food diet (FFD) for 18 weeks to induce NASH features and treated with either TVB-3664 (a surrogate FASN inhibitor for denifanstat, 5 mg/kg, PO, QD) or THRb agonist resmetirom (MGL-3196, 3 mg/kg, PO, QD) alone or in combination for 10 weeks. Endpoints included liver enzymes, lipids and liver histology. Primary human HSCs were stimulated by TGF-b1 and treated with denifanstat or resmetirom at various concentrations (TNO, Netherlands).

[6] = tested on: Male C57BL/6J Gubra-Amylin-MASH (GAN) diet-induced obese mice; experiment: Gubra-Amylin-MASH (GAN) diet-induced obese mice with biopsy-confirmed MASH, 6 weeks treatment; format: in vivo, mouse; details: 6-week treatment; for response rate (RR) for reduction of NAS ≥2-points: TVB-3664 5 mg/kg, resmetirom 3 mg/kg PO QD
Experimental: This study was designed to evaluate FASN inhibitor alone and in combination with RES on liver histology in biopsy-confirmed MASH mice.
Method: Male C57BL/6J Gubra-Amylin-MASH (GAN) diet-induced obese mice with histologically confirmed NAS (≥5) and fibrosis stage (F1-F3) were randomized and treated with either TVB-3664 (a surrogate FASN inhibitor for denifanstat, 5 mg/kg, PO, QD) or resmetirom (RES; MGL-3196)(3 mg/kg, PO, QD) individually or in combination for 6 weeks (n=10-12 for each group, Gubra, Denmark). Treatment groups are NC (normal chow diet control); VEH (MASH vehicle control); FASN (TVB-3664, FASN inhibitor, surrogate for denifanstat); RES (resmetirom) and COMBO (combination of TVB-3664 and resmetirom).

NASH/MASH [7] = details: cited from earlier work
[8] = tested on: C57BL/6J mice fed a high-fat/fructose/cholesterol diet; experiment: Reversal of established diet-induced, biopsy-confirmed NASH in mice (HFFCD 44 weeks + 8 weeks treatment); format: in vivo, mouse; details: pirfenidone co-administered with Compound 002-386, 8 weeks
Source text: C57BL/6J mice were fed a high-fat/fructose/cholesterol diet (HFFCD) for 44 weeks. For an additional eight weeks, animals continued a high-fat/fructose/cholesterol diet and received oral once-per-day treatments of either Compound 002-386, the anti-fibrotic pirfenidone, both Compound 002-386 and pirfenidone, or vehicle control. At the end of the study, analyses included histological assessment (NAFLD Activity Score (NAS) and Fibrosis Stage), gene expression (liver) total triglyceride and cholesterol content (liver and plasma), levels of alanine transaminase (ALT), and aspartate transaminase (AST) in plasma and serum cytokine levels. […]
Blood and plasma assays (triglycerides (TG), total-cholesterol (TC), alanine transaminase (ALT), aspartate transaminase (AST)): Blood samples were collected in heparinized tubes and plasma was separated and stored at −80° C. until analysis. TG, TC, ALT, AST were measured using commercial kits (Roche Diagnostics, Germany) on the Cobas™ C-501 autoanalyzer according to the manufacturer's instructions.
NAFLD activity score (NAS) and fibrosis stage: Liver samples were fixed in formalin, paraffin embedded, and sections were stained with hematoxylin and eosin (H&E) and Sirius Red. Samples were scored for NAS and fibrosis stage (outlined below) using of the clinical criteria outlined by Kleiner et al. 2005. […]

Q: Which IC50 [1] does the source give for N#Cc1ccc(C2(F)CCN(C(=O)c3ccc(Cl)c(NC(=O)c4ccc(N5CCC5)nc4)c3)CC2)nc1 [Compound 001-57] here?
A: 30 nM

Q: With Cc1nnc(-c2cc(C(=O)N3CCC(c4ccc(C#N)cc4)CC3)c(C)cc2C2CCC2)[nH]1 [denifanstat] as the compound, how does the collagen production [2] read?
A: decreased

Q: And the “plasminogen 1 (PAI-1) secretion” value [3]?
A: decreased

Q: What about the “liver fat and biomarkers associated with inflammation and fibrosis” value (NASH/MASH [4]) of the same compound?
A: improvements in liver fat and biomarkers associated with inflammation and fibrosis

Q: Which IC50 [1] does the source give for CCc1cc(C)c(-c2ncc(C3CCOC3)[nH]2)cc1C(=O)N1CCC(c2ccc(C#N)cc2)CC1 (stereo not shown) [Compound 001-192] here?
A: 300 nM

Q: What does the source list for CC(C)c1cc(Oc2c(Cl)cc(-n3nc(C#N)c(=O)[nH]c3=O)cc2Cl)n[nH]c1=O [resmetirom]?
A: plasminogen 1 (PAI-1) secretion [3]: not; plasma ALT/AST [5]: rapidly reduced; plasma total cholesterols [5]: rapidly reduced; plasma triglycerides [5]: rapidly reduced; LDL-C [5]: significantly reduced; VLDL-C [5]: significantly reduced; response rate (RR) for reduction of NAS ≥2-points [6]: 25%; NASH/MASH resolution and fibrosis improvement (NASH/MASH [7]; Phase III clinical trial): significant NASH/MASH resolution and fibrosis improvement; histology response rates (NASH/MASH [7]; human, in vivo): < 50%

Q: Which collagen production [2] does the source give for CC(C)c1cc(Oc2c(Cl)cc(-n3nc(C#N)c(=O)[nH]c3=O)cc2Cl)n[nH]c1=O [Compound A, resmetirom] here?
A: did not display the same effect

Q: What about the “lobular inflammation, 1-point RR” value [6] of the same compound?
A: 8%

Q: And the “steatosis, RR for 1-point reduction” value [6]?
A: 50%

Q: For COCc1[nH]c(C(F)(F)F)nc1-c1cc(C(=O)N2CC(c3ccc(C#N)cc3)C2)c(C)cc1C [TVB-3664], which “plasma ALT/AST” value [5] is on record?
A: rapidly reduced

Q: What about the plasma total cholesterols [5] of the same compound?
A: rapidly reduced

Q: What about the plasma triglycerides [5] of the same compound?
A: rapidly reduced

Q: What about the LDL-C [5] of the same compound?
A: significantly reduced

Q: What about the VLDL-C [5] of the same compound?
A: significantly reduced

Q: And the “lobular inflammation, 1-point RR” value [6]?
A: 42%

Q: What about the “steatosis, RR for 1-point reduction” value [6] of the same compound?
A: 17%

Q: What about the “response rate (RR) for reduction of NAS ≥2-points” value [6] of the same compound?
A: 33%

Q: Which liver fibrosis [8] does the source give for Cc1ccc(=O)n(-c2ccccc2)c1 [pirfenidone] here?
A: further reduced liver fibrosis

Q: With CC(C)CNC(=O)Nc1cc(C(=O)N2CCC(c3ccc(C#N)cn3)CC2)cnn1 [Compound 001-305] as the compound, how does the IC50 [1] read?
A: > 50000 nM

Q: For CCc1nnc(-c2cc(C(=O)N3CCC(c4ccc(C#N)cc4)CC3)c(C)cc2C2CC(F)(F)C2)o1 [Compound 001-231], which IC50 [1] is on record?
A: 300 nM
